Here are results for 32 compounds from patent US20110082130A1 (LIGAND PHARMACEUTICALS, INC., priority 2006, published 2011).

SMILES strings stand for the structures.

The target in the first experiment is T1, chimeric human H3 receptor (Homo sapiens, UniProt Q9Y5N1).
T1 construct: made in house; host or cells: Sf9 insect cells (baculovirus); P2 membrane preparation
T1 sequence (Q9Y5N1 with tags, fused parts or gaps): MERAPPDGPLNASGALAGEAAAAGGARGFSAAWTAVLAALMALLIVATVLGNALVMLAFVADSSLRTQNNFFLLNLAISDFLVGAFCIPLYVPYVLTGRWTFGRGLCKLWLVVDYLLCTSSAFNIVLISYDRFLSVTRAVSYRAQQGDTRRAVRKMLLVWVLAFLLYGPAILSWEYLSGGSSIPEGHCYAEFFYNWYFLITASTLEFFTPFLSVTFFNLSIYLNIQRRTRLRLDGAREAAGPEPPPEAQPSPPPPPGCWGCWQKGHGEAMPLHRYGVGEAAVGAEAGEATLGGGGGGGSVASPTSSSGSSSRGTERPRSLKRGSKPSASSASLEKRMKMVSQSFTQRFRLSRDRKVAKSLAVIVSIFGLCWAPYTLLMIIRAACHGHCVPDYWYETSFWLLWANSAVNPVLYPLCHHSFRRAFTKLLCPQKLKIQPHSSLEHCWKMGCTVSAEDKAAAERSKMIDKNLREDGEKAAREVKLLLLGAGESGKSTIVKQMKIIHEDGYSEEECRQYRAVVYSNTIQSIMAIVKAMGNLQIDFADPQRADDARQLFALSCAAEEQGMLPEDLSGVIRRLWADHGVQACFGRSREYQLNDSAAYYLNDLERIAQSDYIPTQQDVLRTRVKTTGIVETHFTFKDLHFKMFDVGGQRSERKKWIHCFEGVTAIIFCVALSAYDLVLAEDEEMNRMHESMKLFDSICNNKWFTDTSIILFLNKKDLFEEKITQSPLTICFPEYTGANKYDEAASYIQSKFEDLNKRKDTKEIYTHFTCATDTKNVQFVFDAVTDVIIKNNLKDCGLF
The experiment in a line: Chimeric human H3 receptor GTP binding assay (agonist-stimulated GTP-gamma35S binding, Example 7). The format is biochemical. The note with it: Table I; P2 membranes of Sf9 cells, 1 μM histamine as agonist, Ki from IC50 by Cheng-Prusoff. The essentials: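 Sf9 membranes co-expressing chimeric human H3 receptor and heterotrimeric G-protein, 35 μg/tube, in pH 7.4 Tris buffer with 10 μM GDP. Test compounds (10^−10–10^−6 M) competed against 1 μM histamine, […] GTP-gamma35S, 60 min at room temperature. Filter-bound radioactivity counted; IC50 converted to Ki by Cheng-Prusoff. Agonism/inverse agonism tested without histamine (EC50).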
On the technique in general: GTPγS resists hydrolysis and so accumulates on activated G proteins.
Consider `CC(=O)c1ccc(-c2ncnc3c2CCN(CC(=O)N2CCN(C4CCC4)CC2)CC3)cc1` [Compound 79, 1-(4-{7-[2-(4-cyclobutylpiperazin-1-yl)-2-oxoethyl]-6,7,8,9-tetrahydro-5H-pyrimido[4,5-d]azepin-4-yl}phenyl)ethanone], for which the Ki (commonly the dissociation constant of the complex between target and ligand, obtained from inhibition or displacement) was less than 1 µM.

`CC(C)CC1c2ccccc2CCN1CC(=O)N1CCN(C(C)C)CC1` (centres unmarked) [Compound 57, 1-isobutyl-2-[2-(4-isopropylpiperazin-1-yl)-2-oxoethyl]-1,2,3,4-tetrahydroisoquinoline]: the Ki is less than 1 µM.

As to `COc1ncnc2c1CCN(CC(=O)N1CCN(C3CCC3)CC1)CC2` [Compound 78, 7-[2-(4-cyclobutylpiperazin-1-yl)-2-oxoethyl]-4-methoxy-6,7,8,9-tetrahydro-5H-tetrahydro-5H-pyrimido[4,5-d]azepine], the inhibitory constant (Ki) is less than 1 µM.

Consider `O=C(CN1CCc2ccccc2C1)N1CCN(C2CCCC2)CC1` [Compound 46, 2-[2-(4-cyclopentylpiperazin-1-yl)-2-oxoethyl]-1,2,3,4-tetrahydroisoquinoline], for which the inhibition constant Ki was less than 1 µM.

The experiment is the same for the next values; noted with them: Table II "Ki", symbol *; assay of Example 7.
For the compound `CC1CCCCN1c1ccc2c(n1)CCN(CC(=O)N1CCN(C3CCC3)CC1)C2` (centres unmarked) [Compound 676, 6-[2-(4-cyclobutylpiperazin-1-yl)-2-oxoethyl]-2-(2-methylpiperidin-1-yl)-5,6,7,8-tetrahydro-1,6-naphthyridine], the inhibition constant Ki was less than 1 µM.

Consider `COc1ccc(-c2ccc3c(c2)CCN(CC(=O)N2CCN(C4CCC4)CC2)C3)cc1F` [Compound 502, 2-[2-(4-cyclobutylpiperazin-1-yl)-2-oxoethyl]-6-(3-fluoro-4-methoxyphenyl)-1,2,3,4-tetrahydroisoquinoline], for which the Ki is less than 1 µM.

On to `O=C(CN1CCc2cc(-c3cnc4ccccc4c3)ccc2C1)N1CCN(C2CCC2)CC1` [Compound 638, 3-{2-[2-(4-cyclobutylpiperazin-1-yl)-2-oxoethyl]-1,2,3,4-tetrahydroisoquinolin-6-yl}quinoline], for which the inhibition constant (Ki) is less than 1 µM.

For the compound `O=C(CN1CCc2cc(-c3ccc(Cl)cn3)ccc2C1)N1CCN(C2CCC2)CC1` [Compound 631, 6-(5-chloropyridin-2-yl)-2-[2-(4-cyclobutylpiperazin-1-yl)-2-oxoethyl]-1,2,3,4-tetrahydroisoquinoline], the Ki is less than 1 µM.

`CCC(CC)CNc1ccc2c(n1)CCN(CC(=O)N1CCN(C3CCC3)CC1)C2` [Compound 660, 6-[2-(4-cyclobutylpiperazin-1-yl)-2-oxoethyl]-N-(2-ethylbutyl)-5,6,7,8-tetrahydro-1,6-naphthyridin-2-amine]: the Ki was less than 1 µM.

Still in this experiment, the particulars now being: Table II; "*" = Ki in assay of Example 7 less than 1 micromolar.
Turning to `CC1CCCN1C(=O)c1ccc2c(c1)CCN(CC(=O)N1CCN(C3CCC3)CC1)C2` (centres unmarked) [Compound 87, 2-[2-(4-cyclobutylpiperazin-1-yl)-2-oxoethyl]-6-[(2-methylpyrrolidin-1-yl)carbonyl]-1,2,3,4-tetrahydroisoquinoline], the Ki is less than 1 µM.

Regarding `O=C(CN1CCc2cc(N3CCOCC3)nnc2C1)N1CCN(C2CCC2)CC1` [Compound 220, 7-[2-(4-cyclobutylpiperazin-1-yl)-2-oxoethyl]-3-morpholin-4-yl-5,6,7,8-tetrahydropyrido[3,4-c]pyridazine], the Ki was less than 1 µM.

As for `O=C(CN1CCc2cc(-c3cscn3)ccc2C1)N1CCN(C2CCC2)CC1` [Compound 119, 2-[2-(4-cyclobutylpiperazin-1-yl)-2-oxoethyl]-6-(1,3-thiazol-4-yl)-1,2,3,4-tetrahydroisoquinoline], the inhibitory constant (Ki) is less than 1 µM.

Regarding `O=C(CN1CCc2cc(-c3cncs3)ccc2C1)N1CCN(C2CCC2)CC1` [Compound 132, 2-[2-(4-cyclobutylpiperazin-1-yl)-2-oxoethyl]-6-(1,3-thiazol-5-yl)-1,2,3,4-tetrahydroisoquinoline], the Ki was less than 1 µM.

`CC(=O)c1ccc(-c2nc3c(s2)CN(CC(=O)N2CCN(C4CCC4)CC2)CC3)cc1` [Compound 98, 1-(4-{5-[2-(4-cyclobutylpiperazin-1-yl)-2-oxoethyl]-4,5,6,7-tetrahydro[1,3]thiazolo [5,4-c]pyridin-2-yl}phenyl)ethanone]: the inhibition constant Ki is less than 1 µM.

For the compound `O=C(CN1CCc2c(cnn2-c2ccc(Cl)nn2)C1)N1CCN(C2CCC2)CC1` [Compound 214, 1-(6-chloropyridazin-3-yl)-5-[2-(4-cyclobutylpiperazin-1-yl)-2-oxoethyl]-4,5,6,7-tetrahydro-1H-pyrazolo[4,3-c]pyridine], the inhibition constant Ki was less than 1 µM.

Consider `C[C@H]1CCCN1c1ccc2c(n1)CCN(CC(=O)N1CCN(C3CCC3)CC1)C2` (stereo in doubt) [Compound 223, 6-[2-(4-cyclobutylpiperazin-1-yl)-2-oxoethyl]-2-(2-methylpyrrolidin-1-yl)-5,6,7,8-tetrahydro-1,6-naphthyridine], for which the Ki is less than 1 µM.

As to `O=C(CN1CCc2cc(Oc3ccc(C(F)(F)F)cn3)ccc2C1)N1CCN(C2CCC2)CC1` [Compound 198, 2-[2-(4-cyclobutylpiperazin-1-yl)-2-oxoethyl]-6-{[5-(trifluoromethyl)pyridin-2-yl]oxy}-1,2,3,4-tetrahydroisoquinoline], the Ki was less than 1 µM.

In the case of `CC1CN(C(=O)CN2CCc3nc(Cl)sc3C2)CCN1C1CCC1` (centres unmarked) [Compound 109, 2-chloro-5-[2-(4-cyclobutyl-3-methylpiperazin-1-yl)-2-oxoethyl]-4,5,6,7-tetrahydro[1,3] thiazolo [5,4-c]pyridine], the Ki was less than 1 µM.

With `CC(=O)c1ccc(-n2cc3c(n2)CCN(CC(=O)N2CCN(C4CCC4)CC2)C3)cc1` [Compound 94, 1-(4-{5-[2-(4-cyclobutylpiperazin-1-yl)-2-oxoethyl]-4,5,6,7-tetrahydro-2H-pyrazolo[4,3-c]pyridin-2-yl}phenyl)ethanone], the Ki is less than 1 µM.

With `O=C(CN1CCc2ccc(-c3cncnc3)cc2CC1)N1CCN(C2CCC2)CC1` [Compound 104, 3-[2-(4-cyclobutylpiperazin-1-yl)-2-oxoethyl]-7-pyrimidin-5-yl-2,3,4,5-tetrahydro-1H-3-benzazepine], the Ki is less than 1 µM.

For `O=C(CN1CCc2cn(-c3cccnc3)nc2C1)N1CCN(C2CCC2)CC1` [Compound 123, 6-[2-(4-cyclobutylpiperazin-1-yl)-2-oxoethyl]-2-pyridin-3-yl-4,5,6,7-tetrahydro-2H-pyrazolo[3,4-c]pyridine], the inhibitory constant (Ki) was less than 1 µM.

Turning to `COc1ccc(-c2ccc3c(n2)CCN(CC(=O)N2CCN4C(C)CCC[C@H]4C2)C3)cc1` (stereo in doubt) [Compound 178, 2-(4-methoxyphenyl)-6-[2-(6-methyloctahydro-2H-pyrido[1,2-a]pyrazin-2-yl)-2-oxoethyl]-5,6,7,8-tetrahydro-1,6-naphthyridine], the inhibition constant Ki is less than 1 µM.

The same experiment, now with this note: assay of Example 7; "*" in Ki of Table II.
On to `Cc1cccc(-c2nc3c(s2)CN(CC(=O)N2CCN(C4CCC4)CC2)CC3)c1` [Compound 304, 5-[2-(4-cyclobutylpiperazin-1-yl)-2-oxoethyl]-2-(3-methylphenyl)-4,5,6,7-tetrahydro[1,3]thiazolo [5,4-c]pyridine], for which the inhibition constant Ki is less than 1 µM.

With `CCCOc1ccc(-c2nc3c(s2)CN(CC(=O)N2CCN(C4CCC4)CC2)CC3)cc1` [Compound 334, 5-[2-(4-cyclobutylpiperazin-1-yl)-2-oxoethyl]-2-(4-propoxyphenyl)-4,5,6,7-tetrahydro[1,3]thiazolo [5,4-c]pyridine], the inhibitory constant (Ki) is less than 1 µM.

As for `CS(=O)(=O)c1ccc(-c2ccc3c(c2)CCN(CC(=O)N2CCN(C4CCC4)CC2)C3)cc1` [Compound 389, 2-[2-(4-cyclobutylpiperazin-1-yl)-2-oxoethyl]-6-[4-(methylsulfonyl)phenyl]-1,2,3,4-tetrahydroisoquinoline], the inhibition constant Ki was less than 1 µM.

For `CC(C)N1CCN(C(=O)CN2CCc3cc(-c4ccc(S(C)(=O)=O)cc4)ccc3C2)CC1` [Compound 382, 2-[2-(4-isopropylpiperazin-1-yl)-2-oxoethyl]-6-[4-(methylsulfonyl)phenyl]-1,2,3,4-tetrahydroisoquinoline], the inhibitory constant (Ki) was less than 1 µM.

`O=C(CN1CCc2cc(-c3ccc4c(c3)OCCO4)ccc2C1)N1CCN(C2CCCC2)CC1` [Compound 381, 2-[2-(4-cyclopentylpiperazin-1-yl)-2-oxoethyl]-6-(2,3-dihydro-1,4-benzodioxin-6-yl)-1,2,3,4-tetrahydroisoquinoline]: the Ki was less than 1 µM.

In the case of `CCCCc1ccc(-c2nc3c(s2)CN(CC(=O)N2CCN(C4CCC4)CC2)CC3)cc1` [Compound 309, 2-(4-butylphenyl)-5-[2-(4-cyclobutylpiperazin-1-yl)-2-oxoethyl]-4,5,6,7-tetrahydro[1,3]thiazolo [5,4-c]pyridine], the Ki is less than 1 µM.

As to `O=C(CN1CCc2nc(-c3ccc(Cl)cc3F)sc2C1)N1CCN(C2CCC2)CC1` [Compound 351, 2-(4-chloro-2-fluorophenyl)-5-[2-(4-cyclobutylpiperazin-1-yl)-2-oxoethyl]-4,5,6,7-tetrahydro[1,3]thiazolo [5,4-c]pyridine], the Ki is less than 1 µM.

Take `Cn1cc2c(n1)CCN(CC(=O)N1CCN(C3CCC3)CC1)C2` [Compound 293, 5-[2-(4-cyclobutylpiperazin-1-yl)-2-oxoethyl]-2-methyl-4,5,6,7-tetrahydro-2H-pyrazolo[4,3-c]pyridine]: the inhibition constant Ki was less than 1 µM.

On to `Cc1ccc(F)c(-c2nc3c(s2)CN(CC(=O)N2CCN(C4CCC4)CC2)CC3)c1` [Compound 302, 5-[2-(4-cyclobutylpiperazin-1-yl)-2-oxoethyl]-2-(2-fluoro-5-methylphenyl)-4,5,6,7-tetrahydro[1,3]thiazolo [5,4-c]pyridine], for which the Ki is less than 1 µM.

As to `CC(C)Oc1cccc(-c2nc3c(s2)CN(CC(=O)N2CCN(C4CCC4)CC2)CC3)c1` [Compound 325, 5-[2-(4-cyclobutylpiperazin-1-yl)-2-oxoethyl]-2-(3-isopropoxyphenyl)-4,5,6,7-tetrahydro[1,3]thiazolo [5,4-c]pyridine], the Ki is less than 1 µM.
